Test results: patent US20100267561A1, “HERBICIDAL PYRIDAZINONE DERIVATIVES” (priority 2007, published 2010)

How the values were obtained:
Assay in all cases: Test B pre-/postemergence plant response
Assay type in all cases: in vivo
[1] = test system: Russian thistle (Salsola iberica); settings: Preemergence
Method in brief: (§1)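 Seeds were sown and sprayed preemergence, while plants at 2 to 18 cm (1- to 4-leaf stage) got postemergence sprays. Compounds were formulated in a non-phytotoxic solvent mixture with surfactant. After 13 to 15 days in a greenhouse, injury was rated visually against untreated controls, 0 (no effect) to 100 (complete control).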

[2] = test system: blackgrass (Alopecurus myosuroides); settings: for Blackgrass plant response rating: 8 g ai/ha
Method in brief: as §1

[3] = test system: catchweed bedstraw (Galium aparine); settings: Preemergence
Method in brief: as §1

[4] = test system: cocklebur (Xanthium strumarium); settings: for Cocklebur plant response rating: 8 g ai/ha
Method in brief: as §1

[5] = test system: common ragweed (Ambrosia elation); settings: for Ragweed plant response rating: 8 g ai/ha
Method in brief: as §1

[6] = test system: corn (Zea mays); settings: for Corn plant response rating: 8 g ai/ha
Method in brief: as §1

[7] = test system: goosegrass (Eleusine indica); settings: for Goosegrass plant response rating: 8 g ai/ha
Method in brief: as §1

[8] = test system: johnsongrass (Sorghum halepense); settings: for Johnsongrass plant response rating: 8 g ai/ha
Method in brief: as §1

[9] = test system: kochia (Kochia scoparia); settings: for Plant response rating, Kochia: Postemergence
Method in brief: as §1

[10] = test system: large crabgrass (Digitaria sanguinalis); settings: for Crabgrass, Large plant response rating: 8 g ai/ha
Method in brief: as §1

[11] = test system: velvetleaf (Abutilon theophrasti); settings: for Velvetleaf plant response rating: 8 g ai/ha
Method in brief: as §1

[12] = test system: wild oat (Avena fatua); settings: for Oat, Wild plant response rating: 8 g ai/ha
Method in brief: as §1

[13] = test system: woolly cupgrass (Eriochloa villosa); settings: for Cupgrass, Woolly plant response rating: 8 g ai/ha
Method in brief: as §1

[14] = test system: yellow nutsedge (Cyperus esculentus); settings: for Nutsedge, Yellow plant response rating: 8 g ai/ha
Method in brief: as §1

[15] = 16 g ai/ha, scale 0 to 100 (0 no effect, 100 complete control)
[16] = Postemergence, 16 g ai/ha, scale 0 to 100
[17] = Postemergence, 31 g ai/ha, scale 0 to 100, 0 no effect, 100 complete control
[18] = Postemergence, 62 g ai/ha, scale 0 to 100, 0 no effect, 100 complete control
[19] = Preemergence, 16 g ai/ha, scale 0 to 100 (0 no effect, 100 complete control)
[20] = Preemergence, 31 g ai/ha, 0 to 100 scale, 0 no effect, 100 complete control
[21] = Preemergence, 62 g ai/ha, scale 0 to 100

Cc1cc(-c2ccc(Cl)cc2)nn1-c1c(OS(C)(=O)=O)cnn(C)c1=O [Compound 36]
Plant response rating, Russian Thistle [1, 15]: 0
Plant response rating, Russian Thistle ([1]; 62 g ai/ha, scale 0 to 100): 80
Russian Thistle plant response rating ([1]; 8 g ai/ha, scale 0 to 100): 0
Blackgrass plant response rating ([2]; postemergence, 0-100 scale): 0
Plant response rating, Blackgrass [2, 16]: 50
Plant response rating, Blackgrass [2, 17]: 50
Plant response rating, Blackgrass [2, 18]: 80
Plant response rating, Blackgrass [2, 19]: 80
Plant response rating, Blackgrass [2, 20]: 100
Plant response rating, Blackgrass [2, 21]: 100
Blackgrass plant response rating ([2]; Preemergence, scale 0 to 100): 80
Plant response rating, Galium [3, 15]: 0
Plant response rating, Galium ([3]; 31 g ai/ha, 0 to 100 scale, 0 no effect, 100 complete control): 0
Plant response rating, Galium ([3]; 62 g ai/ha, scale 0 to 100): 0
Galium plant response rating ([3]; 8 g ai/ha, scale 0 to 100): 0
Cocklebur plant response rating ([4]; postemergence, 0-100 scale): 0
Plant response rating, Cocklebur [4, 16]: 0
Plant response rating, Cocklebur [4, 17]: 0
Plant response rating, Cocklebur [4, 18]: 0
Plant response rating, Cocklebur [4, 19]: 0
Plant response rating, Cocklebur [4, 20]: 0
Plant response rating, Cocklebur [4, 21]: 0
Cocklebur plant response rating ([4]; Preemergence, scale 0 to 100): 0
Ragweed plant response rating ([5]; postemergence, 0-100 scale): 0
Plant response rating, Ragweed [5, 16]: 0
Plant response rating, Ragweed [5, 17]: 0
Plant response rating, Ragweed [5, 18]: 0
Plant response rating, Ragweed [5, 19]: 0
Plant response rating, Ragweed [5, 20]: 0
Plant response rating, Ragweed [5, 21]: 0
Ragweed plant response rating ([5]; Preemergence, scale 0 to 100): 0
Corn plant response rating ([6]; postemergence, 0-100 scale): 10
Plant response rating, Corn [6, 16]: 15
Plant response rating, Corn [6, 17]: 15
Plant response rating, Corn [6, 18]: 40
Plant response rating, Corn [6, 19]: 55
Plant response rating, Corn [6, 20]: 70
Plant response rating, Corn [6, 21]: 95
Corn plant response rating ([6]; Preemergence, scale 0 to 100): 40
Goosegrass plant response rating ([7]; postemergence, 0-100 scale): 0
Plant response rating, Goosegrass [7, 16]: 100
Plant response rating, Goosegrass [7, 17]: 100
Plant response rating, Goosegrass [7, 18]: 100
Plant response rating, Goosegrass [7, 19]: 100
Plant response rating, Goosegrass [7, 20]: 100
Plant response rating, Goosegrass [7, 21]: 100
Goosegrass plant response rating ([7]; Preemergence, scale 0 to 100): 80
Johnsongrass plant response rating ([8]; postemergence, 0-100 scale): 0
Plant response rating, Johnsongrass [8, 16]: 50
Plant response rating, Johnsongrass [8, 17]: 95
Plant response rating, Johnsongrass [8, 18]: 100
Plant response rating, Johnsongrass [8, 20]: 40
Plant response rating, Johnsongrass [8, 21]: 100
Johnsongrass plant response rating ([8]; Preemergence, scale 0 to 100): 0
Kochia plant response rating ([9]; 8 g ai/ha, postemergence, 0-100 scale): 0
Plant response rating, Kochia ([9]; 16 g ai/ha, scale 0 to 100): 0
Plant response rating, Kochia ([9]; 31 g ai/ha, scale 0 to 100, 0 no effect, 100 complete control): 0
Plant response rating, Kochia ([9]; 62 g ai/ha, scale 0 to 100, 0 no effect, 100 complete control): 0
Crabgrass, Large plant response rating ([10]; postemergence, 0-100 scale): 50
Plant response rating, Crabgrass, Large [10, 16]: 65
Plant response rating, Crabgrass, Large [10, 17]: 90
Plant response rating, Crabgrass, Large [10, 18]: 100
Plant response rating, Crabgrass, Large [10, 19]: 98
Plant response rating, Crabgrass, Large [10, 20]: 100
Plant response rating, Crabgrass, Large [10, 21]: 100
Crabgrass, Large plant response rating ([10]; Preemergence, scale 0 to 100): 98
Velvetleaf plant response rating ([11]; postemergence, 0-100 scale): 0
Plant response rating, Velvetleaf [11, 16]: 0
Plant response rating, Velvetleaf [11, 18]: 0
Plant response rating, Velvetleaf [11, 19]: 0
Plant response rating, Velvetleaf [11, 20]: 0
Plant response rating, Velvetleaf [11, 21]: 0
Velvetleaf plant response rating ([11]; Preemergence, scale 0 to 100): 0
Oat, Wild plant response rating ([12]; postemergence, 0-100 scale): 0
Plant response rating, Oat, Wild [12, 16]: 50
Plant response rating, Oat, Wild [12, 17]: 60
Plant response rating, Oat, Wild [12, 18]: 90
Plant response rating, Oat, Wild [12, 19]: 50
Plant response rating, Oat, Wild [12, 20]: 90
Plant response rating, Oat, Wild [12, 21]: 95
Oat, Wild plant response rating ([12]; Preemergence, scale 0 to 100): 0
Cupgrass, Woolly plant response rating ([13]; postemergence, 0-100 scale): 85
Plant response rating, Cupgrass, Woolly [13, 16]: 90
Plant response rating, Cupgrass, Woolly [13, 17]: 95
Plant response rating, Cupgrass, Woolly [13, 18]: 95
Plant response rating, Cupgrass, Woolly [13, 19]: 85
Plant response rating, Cupgrass, Woolly [13, 20]: 98
Plant response rating, Cupgrass, Woolly [13, 21]: 100
Cupgrass, Woolly plant response rating ([13]; Preemergence, scale 0 to 100): 85
Nutsedge, Yellow plant response rating ([14]; postemergence, 0-100 scale): 0
Plant response rating, Nutsedge, Yellow [14, 16]: 0
Plant response rating, Nutsedge, Yellow [14, 17]: 0
Plant response rating, Nutsedge, Yellow [14, 18]: 0
Plant response rating, Nutsedge, Yellow [14, 19]: 0
Plant response rating, Nutsedge, Yellow [14, 20]: 0
Plant response rating, Nutsedge, Yellow [14, 21]: 0
Nutsedge, Yellow plant response rating ([14]; Preemergence, scale 0 to 100): 0
